Laboratory results as given in patent US9428465B2, “Acid ceramidase inhibitors and their use as medicaments” (FONDAZIONE ISTITUTO ITALIANO DI TECHNOLOGIA, priority 2012, dated 2016).

Molecular target: human acid ceramidase (hAC) (Homo sapiens (Human), UniProt Q13510)
Assay: Human acid ceramidase (hAC) activity assay, UPLC/MS of lauric acid
Format: biochemical
Details: human acid ceramidase, 50 μM N-lauroyl ceramide, pH 4.5
Experimental: Human acid ceramidase (hAC) cDNA was purchased from Open Biosystem (clone ID 3923451) and subcloned in the mammalian expression vector pCDNA3.1, containing the neomycin resistance gene. The cell line HEK293 was transfected with hAC-pCDNA3.1 construct using JetPEI reagent (Polypus Transfection™, Illkirch, FR) following the manufacturer instructions. A stable cell line of hAC-overexpressing HEK293 was generated by selection with G418 (1 mg/ml) and cell clones were derived by limited dilution plating. hAC-expressing clones were analyzed by western blot.
Hek293 cells overexpressing hAC were suspended in 20 mM Tris HCl (pH 7.5) containing 0.32M sucrose, sonicated and centrifuged at 800×g for 15 min at 4° C. The supernatants were centrifuged again at 12,000×g for 30 min at 4° C. The pellets were suspended in phosphate-buffered saline (PBS) and subjected to 2 freeze-thaw cycles at −80° C. The suspensions were centrifuged at 105,000×g for 1 h at 4° C. The supernatants containing hAC were kept at −80° C. until use. Protein concentration was measured using the bicinchoninic acid (BCA) assay (Pierce).
A hAC protein preparation (10 μg) was preincubated with inhibitors (final DMSO concentration 1%) in assay buffer (100 mM sodium phosphate, 0.1% Nonidet P-40, 150 mM NaCl, 3 mM DTT, 100 mM sodium citrate, pH 4.5) for 30 min at 37° C. Reactions were started by the addition of 50 μM N-lauroyl ceramide (Nu-Chek Prep, Elysian, Minn.) and carried on for 30 min at 37° C. Reactions were stopped by addition of a mixture of chloroform/methanol (2:1, vol/vol) containing 1 nmol 11-lauroleic acid (NuChek Prep). The organic phases were collected, dried under nitrogen and analyzed by UPLC/MS (Acquity, Waters) in the negative-ion mode monitoring the reaction product (lauric acid, m/z=199) using 11-lauroleic acid as internal standard.
Lipids were eluted on an Acquity UPLC BEH C18 column (50 mm length, 2.1 mm i.d., 1.7 μm pore size, Waters) column at 0.5 mL-min^−1 for 1.5 min with a gradient of acetonitrile (CH3CN) and water, both containing 0.25% acetic acid and 5 mM ammonium acetate (70% to 100% CH3CN in 0.5 min, 100% CH3CN for 0.5 min, 70% CH3CN for 0.4 min). The column temperature was 40° C. Electrospray ionization (ESI) was in the negative mode, capillary voltage was 1 kV and cone voltage was 50 V. Nitrogen was used as drying gas at a flow rate of 500 L/h and at a temperature of 400° C.
The [M-H]^− ion was monitored in the selected-ion monitoring mode (m/z values: lauric acid 199, 11-lauroleic acid […]). Calibration curves were generated with authentic lauric acid (Nu Check Prep). Inhibition of acid ceramidase activity was calculated as reduction of lauric acid in the samples compared to vehicle controls. IC50 values were calculated by non-linear regression analysis of log [concentration]/inhibition curves using GraphPad Prism 5 (GraphPad Software Inc., CA, USA) applying a standard slope curve fitting.

Chain of human acid ceramidase (hAC) (Q13510 143-395): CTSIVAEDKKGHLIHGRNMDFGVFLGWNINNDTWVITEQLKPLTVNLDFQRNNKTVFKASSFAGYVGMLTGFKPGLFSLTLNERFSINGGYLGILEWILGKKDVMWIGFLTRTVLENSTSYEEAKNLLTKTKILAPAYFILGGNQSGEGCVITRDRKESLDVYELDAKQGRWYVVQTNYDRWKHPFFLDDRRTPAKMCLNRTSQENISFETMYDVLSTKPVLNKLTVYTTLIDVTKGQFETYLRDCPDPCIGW
Chain of human acid ceramidase (hAC) (Q13510 22-142): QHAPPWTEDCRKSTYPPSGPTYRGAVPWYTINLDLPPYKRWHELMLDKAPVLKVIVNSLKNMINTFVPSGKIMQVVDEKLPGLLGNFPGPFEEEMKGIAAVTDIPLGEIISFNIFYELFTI

CCCCCCNC(=O)n1cc(Br)c(=O)[nH]c1=O [Example 5, 5-bromo-N-hexyl-2,4-dioxo-pyrimidine-1-carboxamide]
IC50: 0.035 µM
